Experiments:
[1] = target: von Hippel-Lindau disease tumor suppressor/Histone deacetylase 2 (Homo sapiens, UniProt Q92769+P40337); experiment: PROTAC activity at VHL/HDAC2 in human ES1 cells assessed as HDAC2 degradation by fluorescence based assay; assay type: cell-based
[2] = target: von Hippel-Lindau disease tumor suppressor/Histone deacetylase 1 (Homo sapiens, UniProt Q13547+P40337); experiment: PROTAC activity at VHL/HDAC1 in human ES1 cells assessed as HDAC1 degradation by fluorescence based assay; assay type: cell-based
Histone deacetylase 3 [3] = target: T1, Histone deacetylase 3 (Homo sapiens, UniProt O15379); experiment: Inhibition of HDAC3 (unknown origin) using biotinylated histone H3 KAc peptide as substrate pretreated with compound for 1 hrs followed by substrate addition measured after 1 hrs by microplate reader analysis by HTRF assay
Histone deacetylase 8 [4] = target: T2, Histone deacetylase 8 (Homo sapiens, UniProt Q9BY41); experiment: Inhibition of human HDAC8 using Boc-Lys (Ac)-AMC as substrate incubated for 60 mins by fluorimetric assay
T2 sequence (Q9BY41 whole entry): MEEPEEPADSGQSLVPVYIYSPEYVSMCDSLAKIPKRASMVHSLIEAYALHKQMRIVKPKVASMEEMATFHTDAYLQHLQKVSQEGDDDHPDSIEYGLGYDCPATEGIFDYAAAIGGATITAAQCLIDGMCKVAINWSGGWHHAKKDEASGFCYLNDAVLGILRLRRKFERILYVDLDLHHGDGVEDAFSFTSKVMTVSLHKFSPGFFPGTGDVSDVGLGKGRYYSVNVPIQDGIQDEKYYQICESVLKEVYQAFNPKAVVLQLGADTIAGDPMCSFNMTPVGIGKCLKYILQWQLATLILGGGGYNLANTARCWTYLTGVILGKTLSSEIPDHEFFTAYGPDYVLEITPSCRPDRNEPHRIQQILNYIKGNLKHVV

[5] = target: T3, Protein deacetylase HDAC6 (Homo sapiens, UniProt Q9UBN7); experiment: Inhibition of human recombinant HDAC6 using fluorogenic HDAC substrate by fluorescence assay
T3 sequence (Q9UBN7 whole entry): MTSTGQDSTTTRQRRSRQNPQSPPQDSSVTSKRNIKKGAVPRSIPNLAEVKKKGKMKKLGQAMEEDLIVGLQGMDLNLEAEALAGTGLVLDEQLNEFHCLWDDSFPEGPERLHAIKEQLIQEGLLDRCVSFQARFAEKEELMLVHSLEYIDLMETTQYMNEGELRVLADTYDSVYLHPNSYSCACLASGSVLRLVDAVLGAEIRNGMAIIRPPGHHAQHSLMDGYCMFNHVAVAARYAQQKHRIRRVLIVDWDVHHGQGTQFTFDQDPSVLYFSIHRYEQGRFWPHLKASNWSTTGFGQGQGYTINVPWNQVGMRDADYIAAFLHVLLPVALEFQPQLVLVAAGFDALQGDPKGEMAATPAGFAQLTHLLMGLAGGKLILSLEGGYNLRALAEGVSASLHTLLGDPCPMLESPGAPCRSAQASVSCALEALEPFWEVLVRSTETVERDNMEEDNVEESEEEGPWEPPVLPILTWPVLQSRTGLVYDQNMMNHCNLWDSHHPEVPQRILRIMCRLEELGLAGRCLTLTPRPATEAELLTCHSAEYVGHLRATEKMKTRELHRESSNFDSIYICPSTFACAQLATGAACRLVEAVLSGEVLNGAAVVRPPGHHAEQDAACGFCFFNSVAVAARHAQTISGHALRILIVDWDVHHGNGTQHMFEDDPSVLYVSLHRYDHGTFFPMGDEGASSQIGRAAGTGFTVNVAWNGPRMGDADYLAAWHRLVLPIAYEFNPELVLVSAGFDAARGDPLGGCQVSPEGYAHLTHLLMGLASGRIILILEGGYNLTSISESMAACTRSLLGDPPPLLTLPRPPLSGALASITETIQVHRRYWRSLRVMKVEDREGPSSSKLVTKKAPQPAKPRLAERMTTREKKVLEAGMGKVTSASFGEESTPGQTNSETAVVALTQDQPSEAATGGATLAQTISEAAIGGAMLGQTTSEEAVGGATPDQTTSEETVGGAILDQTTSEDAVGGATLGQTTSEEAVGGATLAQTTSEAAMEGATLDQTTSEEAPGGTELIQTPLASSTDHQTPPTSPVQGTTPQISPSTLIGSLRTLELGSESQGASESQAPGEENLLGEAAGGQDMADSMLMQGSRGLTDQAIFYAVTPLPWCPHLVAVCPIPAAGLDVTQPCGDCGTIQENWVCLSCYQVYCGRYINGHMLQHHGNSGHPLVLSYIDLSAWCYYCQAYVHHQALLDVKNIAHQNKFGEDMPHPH

[6] = target: T3, Protein deacetylase HDAC6; experiment: Inhibition of HDAC6 (unknown origin) using Ac-peptide as substrate preincubated for 15 mins followed by substrate addition and measured after 1 hr by fluorescence based assay
[7] = target: von Hippel-Lindau disease tumor suppressor/Protein deacetylase HDAC6 (Homo sapiens, UniProt Q9UBN7+P40337); experiment: Protac activity at VHL/HDAC6 in human MDA-MB-468 cells assessed as HDAC6 degradation measured after 14 hrs by Western blot analysis; assay type: cell-based
Histone deacetylase 1 [8] = target: T4, Histone deacetylase 1 (Homo sapiens, UniProt Q13547); experiment: Inhibition of HDAC1 (unknown origin) using ZMAL (Z-Lys(Ac)-AMC as fluorogenic substrate pre-incubated for 30 mins measured for 1 hr by fluorescence based analysis
[9] = target: T5, Protein cereblon/Histone deacetylase 8 (Homo sapiens, UniProt Q9BY41+Q96SW2); experiment: PROTAC activity at HDAC8/CRBN in human HCT-116 cells assessed as degradation of HDAC8 by Western blot analysis; assay type: cell-based
[10] = target: Protein cereblon/Histone deacetylase 3 (Homo sapiens, UniProt O15379+Q96SW2); experiment: Protac activity at CRBN/HDAC3 in human MDA-MB-468 cells assessed as HDAC3 degradation measured after 14 hrs by Western blot analysis; assay type: cell-based
Histone deacetylase 3 [11] = target: T1, Histone deacetylase 3; experiment: Inhibition of HDAC3 (unknown origin)
[12] = target: T5, Protein cereblon/Histone deacetylase 8; experiment: PROTAC activity at HDAC8/CRBN in human HCT-116 cells assessed as degradation of HDAC8 measured after 10 hrs in presence of E3 ligase inhibitor by Western blot analysis; assay type: cell-based
Histone deacetylase 1 [13] = target: T4, Histone deacetylase 1; experiment: Inhibition of HDAC1 (unknown origin) by fluorescence based assay
[14] = target: T6, Bromodomain-containing protein 4 (Homo sapiens, UniProt O60885); experiment: Inhibition of BRD4 BD2 (unknown origin) by TR-FRET assay
[15] = target: T6, Bromodomain-containing protein 4; experiment: Inhibition of BRD4 BD1 (unknown origin) incubated for 15 mins by TR-FRET analysis
[16] = target: Cyclin-dependent kinase 4 (Homo sapiens, UniProt P11802); experiment: Inhibition of CDK4 (unknown origin)
[17] = target: T7, Vascular endothelial growth factor receptor 2 (Homo sapiens, UniProt P35968); experiment: Inhibition of VEGFR2 (unknown origin) expressed in baculovirus infected insect cells using biotinylated-GGGGQDGKDYIVLPI peptide as substrate incubated for 1 to 4 hrs by TR-FRET assay
[18] = Metabolic stability in human Hepatocyte assessed as half life by LC-MS/MS analysis; assay type: ADME, cell-based; conditions: hepatocytes
Histone deacetylase 1 [19] = target: T4, Histone deacetylase 1; experiment: Inhibition of HDAC1 (unknown origin)
[20] = target: T3, Protein deacetylase HDAC6; experiment: Inhibition of HDAC6 (unknown origin)
Histone deacetylase 3 [21] = target: T1, Histone deacetylase 3; experiment: Inhibition of HDAC3 (unknown origin) at 10 uM relative to control
Homo sapiens = organism: Homo sapiens; experiment: Inhibition of Topoisomerase 2 (unknown origin) at 50 to 100 uM incubated for 15 mins in the presence of ATP by electrophoretic analysis; conditions: dose 50-100 µM
Histone deacetylase 2 = Histone deacetylase 2 (Homo sapiens, UniProt Q92769); experiment: Inhibition of human recombinant HDAC2 using Ac-RHKK(Acetyl)-AMC peptide as fluorogenic substrate pre-incubated for 30 mins followed by substrate addition and measured for 60 mins by fluorescence based analysis
Histone deacetylase 1 [22] = target: T4, Histone deacetylase 1; experiment: Inhibition of human recombinant HDAC1 using Ac-RHKK(Acetyl)-AMC peptide as fluorogenic substrate pre-incubated for 30 mins followed by substrate addition and measured for 60 mins by fluorescence based analysis
Histone deacetylase 8 [23] = target: T2, Histone deacetylase 8; experiment: Inhibition of HDAC8 (unknown origin) using Fluoro-Substrate Peptide as substrate by fluorescence based assay
Histone deacetylase 8 [24] = target: T2, Histone deacetylase 8; experiment: Inhibition of human recombinant His-tagged HDAC8 expressed in Escherichia coli BL21 (DE3) using ArgHisLysLys(Ac) as substrate pre-incubated for 1 hr and measured after 1 hr by fluorescence based analysis
[25] = target: T7, Vascular endothelial growth factor receptor 2; experiment: Inhibition of VEGFR2 (unknown origin) using poly (Glu,Tyr) 4:1 as substrate measured after 1 hr in presence of ATP by spectrophotometric analysis
Histone deacetylase 1 [26] = target: T4, Histone deacetylase 1; experiment: Inhibition of human recombinant HDAC1 using fluorogenic substrate incubated for 30 mins by fluorescence based assay
[27] = target: Vascular endothelial growth factor receptor 1 (Homo sapiens, UniProt P17948); experiment: Inhibition of VEGFR1 (unknown origin)
[28] = target: T3, Protein deacetylase HDAC6; experiment: Inhibition of HDAC6 (unknown origin) using biotinylated histone H3 KAc peptide (1 to 21 residues) as substrate by HTRF assay

von Hippel-Lindau disease tumor suppressor/Histone deacetylase 1, sequence (Q13547 whole entry): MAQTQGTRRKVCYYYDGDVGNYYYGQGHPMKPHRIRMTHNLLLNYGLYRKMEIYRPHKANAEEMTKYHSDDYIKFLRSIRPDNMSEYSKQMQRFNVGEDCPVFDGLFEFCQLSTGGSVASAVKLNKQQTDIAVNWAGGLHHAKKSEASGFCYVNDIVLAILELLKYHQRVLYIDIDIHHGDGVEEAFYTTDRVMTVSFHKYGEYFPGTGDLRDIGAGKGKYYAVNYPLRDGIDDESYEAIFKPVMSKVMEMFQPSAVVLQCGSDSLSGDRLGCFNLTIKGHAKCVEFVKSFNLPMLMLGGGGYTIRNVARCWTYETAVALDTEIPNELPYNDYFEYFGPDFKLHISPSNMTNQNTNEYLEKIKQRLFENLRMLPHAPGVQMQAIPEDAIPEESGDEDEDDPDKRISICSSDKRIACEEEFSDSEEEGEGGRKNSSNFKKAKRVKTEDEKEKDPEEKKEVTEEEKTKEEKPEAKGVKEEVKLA
von Hippel-Lindau disease tumor suppressor/Histone deacetylase 1, sequence (P40337 whole entry): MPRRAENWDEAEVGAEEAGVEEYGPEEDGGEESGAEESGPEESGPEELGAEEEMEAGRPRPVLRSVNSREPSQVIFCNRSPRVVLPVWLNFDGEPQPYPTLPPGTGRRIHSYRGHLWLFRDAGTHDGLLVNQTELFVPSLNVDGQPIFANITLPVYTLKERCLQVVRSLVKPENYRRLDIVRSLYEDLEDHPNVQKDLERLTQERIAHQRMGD
T4 sequence (Q13547 whole entry): as the sequence (Q13547 whole entry) above
T1 sequence (O15379 whole entry): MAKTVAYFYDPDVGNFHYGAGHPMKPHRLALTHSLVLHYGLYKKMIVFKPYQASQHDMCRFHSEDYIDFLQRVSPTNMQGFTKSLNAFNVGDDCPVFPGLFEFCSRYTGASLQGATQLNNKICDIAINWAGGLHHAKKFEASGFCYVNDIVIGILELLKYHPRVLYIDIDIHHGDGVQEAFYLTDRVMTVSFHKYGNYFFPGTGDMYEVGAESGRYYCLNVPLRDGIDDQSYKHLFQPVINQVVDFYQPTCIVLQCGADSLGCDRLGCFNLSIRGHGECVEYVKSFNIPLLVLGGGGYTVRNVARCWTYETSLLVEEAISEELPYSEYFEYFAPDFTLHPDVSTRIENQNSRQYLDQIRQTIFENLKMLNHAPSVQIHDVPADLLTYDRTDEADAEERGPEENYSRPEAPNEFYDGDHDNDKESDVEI
T5 sequence (Q96SW2 whole entry, one chain of several): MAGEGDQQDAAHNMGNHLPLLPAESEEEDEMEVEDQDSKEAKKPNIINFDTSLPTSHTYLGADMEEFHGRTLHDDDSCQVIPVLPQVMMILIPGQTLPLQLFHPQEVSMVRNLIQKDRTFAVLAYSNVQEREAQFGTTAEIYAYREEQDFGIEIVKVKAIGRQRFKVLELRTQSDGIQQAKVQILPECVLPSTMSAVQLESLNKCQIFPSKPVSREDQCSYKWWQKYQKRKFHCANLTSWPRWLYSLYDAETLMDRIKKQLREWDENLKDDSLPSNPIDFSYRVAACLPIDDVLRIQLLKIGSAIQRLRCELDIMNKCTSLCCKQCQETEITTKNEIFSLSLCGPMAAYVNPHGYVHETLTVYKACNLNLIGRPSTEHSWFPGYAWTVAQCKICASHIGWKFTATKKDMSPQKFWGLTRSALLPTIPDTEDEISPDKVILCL
von Hippel-Lindau disease tumor suppressor/Histone deacetylase 2, sequence (Q92769 whole entry): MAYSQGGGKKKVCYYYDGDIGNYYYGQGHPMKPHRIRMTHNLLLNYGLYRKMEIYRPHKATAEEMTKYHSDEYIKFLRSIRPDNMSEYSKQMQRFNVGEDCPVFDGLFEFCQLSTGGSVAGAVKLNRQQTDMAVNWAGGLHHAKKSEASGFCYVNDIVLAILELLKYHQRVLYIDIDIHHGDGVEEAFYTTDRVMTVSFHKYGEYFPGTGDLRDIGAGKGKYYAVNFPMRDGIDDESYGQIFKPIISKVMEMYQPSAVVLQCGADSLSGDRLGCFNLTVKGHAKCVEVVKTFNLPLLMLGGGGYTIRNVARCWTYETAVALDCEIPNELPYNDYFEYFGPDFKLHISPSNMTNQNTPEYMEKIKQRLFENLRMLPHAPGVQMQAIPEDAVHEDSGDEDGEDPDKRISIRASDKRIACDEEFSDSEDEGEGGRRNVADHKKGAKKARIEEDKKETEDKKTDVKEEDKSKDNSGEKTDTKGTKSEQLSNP
von Hippel-Lindau disease tumor suppressor/Histone deacetylase 2, sequence (P40337 whole entry): as the sequence (P40337 whole entry) above
von Hippel-Lindau disease tumor suppressor/Protein deacetylase HDAC6, sequence (P40337 whole entry, one chain of several): as the sequence (P40337 whole entry) above
T7 sequence (P35968 whole entry): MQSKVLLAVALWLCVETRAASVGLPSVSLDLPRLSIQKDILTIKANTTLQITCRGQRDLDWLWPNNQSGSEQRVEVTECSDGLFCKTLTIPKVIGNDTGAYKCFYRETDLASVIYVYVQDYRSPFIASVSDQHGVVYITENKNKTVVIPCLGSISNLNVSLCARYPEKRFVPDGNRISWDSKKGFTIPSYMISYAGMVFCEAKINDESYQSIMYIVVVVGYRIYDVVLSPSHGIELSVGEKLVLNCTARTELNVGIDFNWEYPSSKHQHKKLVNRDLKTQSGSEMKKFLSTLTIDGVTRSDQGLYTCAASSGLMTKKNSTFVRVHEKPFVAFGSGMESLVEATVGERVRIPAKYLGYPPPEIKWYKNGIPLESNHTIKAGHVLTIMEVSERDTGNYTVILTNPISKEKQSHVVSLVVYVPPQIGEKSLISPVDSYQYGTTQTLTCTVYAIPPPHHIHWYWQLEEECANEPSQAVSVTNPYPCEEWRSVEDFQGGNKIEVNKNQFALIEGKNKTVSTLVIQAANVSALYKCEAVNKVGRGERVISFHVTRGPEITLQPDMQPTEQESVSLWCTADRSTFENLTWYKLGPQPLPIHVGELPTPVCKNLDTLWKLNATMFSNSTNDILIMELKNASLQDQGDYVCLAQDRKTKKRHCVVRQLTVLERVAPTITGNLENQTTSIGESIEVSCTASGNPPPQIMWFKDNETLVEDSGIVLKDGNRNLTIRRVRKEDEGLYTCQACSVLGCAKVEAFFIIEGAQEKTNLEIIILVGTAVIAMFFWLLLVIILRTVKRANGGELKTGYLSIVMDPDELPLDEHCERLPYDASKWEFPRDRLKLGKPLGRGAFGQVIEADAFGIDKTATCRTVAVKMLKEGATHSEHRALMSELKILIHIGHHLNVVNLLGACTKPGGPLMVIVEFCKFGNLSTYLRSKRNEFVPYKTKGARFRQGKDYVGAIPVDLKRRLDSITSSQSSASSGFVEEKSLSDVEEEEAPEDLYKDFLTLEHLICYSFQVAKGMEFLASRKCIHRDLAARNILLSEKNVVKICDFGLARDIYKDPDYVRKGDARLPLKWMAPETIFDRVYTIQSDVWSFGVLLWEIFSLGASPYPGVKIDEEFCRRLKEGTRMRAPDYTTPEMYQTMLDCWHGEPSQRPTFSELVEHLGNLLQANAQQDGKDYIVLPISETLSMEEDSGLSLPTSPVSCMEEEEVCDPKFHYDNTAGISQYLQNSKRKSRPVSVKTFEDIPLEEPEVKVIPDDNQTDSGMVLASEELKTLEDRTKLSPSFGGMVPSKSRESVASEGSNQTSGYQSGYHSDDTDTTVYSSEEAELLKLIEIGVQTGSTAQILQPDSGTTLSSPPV
Cyclin-dependent kinase 4, sequence (P11802 whole entry): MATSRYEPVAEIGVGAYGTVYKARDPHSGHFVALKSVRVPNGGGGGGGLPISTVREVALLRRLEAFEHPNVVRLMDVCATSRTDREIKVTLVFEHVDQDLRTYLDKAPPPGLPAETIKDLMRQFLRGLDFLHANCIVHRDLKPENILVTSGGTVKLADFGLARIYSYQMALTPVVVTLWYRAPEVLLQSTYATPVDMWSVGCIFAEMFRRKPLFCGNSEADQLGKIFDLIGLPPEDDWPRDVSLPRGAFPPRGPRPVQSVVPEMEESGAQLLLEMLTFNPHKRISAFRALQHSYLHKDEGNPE

CCCNNC(=O)c1ccc(-c2ccc(NC(=O)CCCCCCC(=O)N[C@H](C(=O)N3C[C@H](O)C[C@H]3C(=O)N[C@@H](C)c3ccc(-c4scnc4C)cc3)C(C)(C)C)cc2)cc1
DC50 [1]: 2000 nM
DC50 [2]: 650 nM

O=C(Cc1ccc2ncccc2c1)Nc1ccccc1O
IC50 (Histone deacetylase 3 [3]): 2000 nM

O=C(COc1ccc2c(c1)OC1(CCN(Cc3cc(Cl)cc(Cl)c3)CC1)CC2=O)NO
IC50 (Histone deacetylase 8 [4]): 8000 nM
IC50 [5]: 80 nM

CCCNNC(=O)/C=C/c1ccc(CNCCc2c(C)[nH]c3ccccc23)cc1
IC50 [6]: > 50 nM

Cc1ncsc1-c1ccc([C@H](C)NC(=O)[C@@H]2C[C@@H](O)CN2C(=O)[C@@H](NC(=O)COCCOCCOCC(=O)NCc2cccc(CNc3ncc(-c4nnc(C(F)F)o4)cn3)c2)C(C)(C)C)cc1
DC50 [7]: 686 nM

Cc1ccccc1/C=C/C(=O)Nc1ccc(C(=O)NS(=O)(=O)c2ccc(NCCCCCCC(=O)NO)c([N+](=O)[O-])c2)c(Oc2ccccc2)c1
IC50 [5]: 3 nM
IC50 (Histone deacetylase 1 [8]): 102 nM

O=C1CCC(N2C(=O)c3cccc(NCCCCCCCCCCCNC(=O)Nc4cccc(SCc5cn(-c6cccc(C(=O)NO)c6)nn5)c4)c3C2=O)C(=O)N1 (configuration not stated)
DC50 [9]: 53 nM

O=C(CCCCCCNC(=O)c1ccc(NC(=O)COCCOCCNC(=O)COc2cccc3c2C(=O)N(C2CCC(=O)NC2=O)C3=O)cc1)NO (configuration not stated)
DC50 [1]: 248 nM
DC50 [2]: 174 nM
DC50 [7]: 27 nM
DC50 [10]: 139 nM

O=C(COc1ccc2c(c1)OC1(CCN(Cc3cc(F)cc(F)c3)CC1)CC2=O)NO
IC50 (Histone deacetylase 8 [4]): 9000 nM
IC50 [5]: 80 nM

Nc1ccccc1NC(=O)Cc1ccc2ncccc2c1
IC50 (Histone deacetylase 3 [11]): 560 nM

O=C(Cc1ccc(C(=O)NO)cc1)Nc1ccc2ncnc(Nc3ccc(Br)c(F)c3)c2c1
IC50 [5]: 15 nM
IC50 (Histone deacetylase 1 [8]): 742 nM

COc1ccc(C(=O)NO)cc1NCc1ccc(OCc2cn(CCCCCNc3cccc4c3C(=O)N(C3CCC(=O)NC3=O)C4=O)nn2)cc1 (configuration not stated)
DC50 [12]: 250 nM

Cc1sc2c(c1C)C(c1ccc(Cl)cc1)=N[C@@H](CC(=O)Nc1ccc(C(=O)Nc3ccccc3[N+](=O)[O-])cc1)c1nnc(C)n1-2
IC50 (Histone deacetylase 1 [13]): 290 nM
IC50 [14]: 74 nM
IC50 [15]: 720 nM

O=C(CCCCCCN1CCN(c2ccc(Nc3ncc(F)c(-c4cn(C5CCCC5)nn4)n3)cc2)CC1)NO
IC50 [16]: 23 nM

CCCNNC(=O)c1ccc(Nc2nccc(N(C)c3ccc4c(C)n(C)nc4c3)n2)cc1
IC50 [17]: 25 nM
half-life [18]: < 15 min
IC50 (Histone deacetylase 1 [19]): 420 nM

O=C(CS)Nc1ccc(Cn2c3c(c4ccccc42)CS(=O)(=O)CC3)cc1
IC50 [20]: 130 nM

O=C(/C=C/c1ccc(CSc2nc3[nH]ncc3c(=O)n2-c2ccccc2)cc1)NO
inhibition (Histone deacetylase 3 [21]): 88%
inhibition (Homo sapiens): 82.1%

COc1ccc(-c2ccc3c(NC(=O)CCCCCCC(=O)NO)n[nH]c3c2)cc1
IC50 (Histone deacetylase 2): 4 nM
IC50 (Histone deacetylase 1 [22]): 2 nM
IC50 (Histone deacetylase 8 [23]): 4 nM

O=C(CCCN1CCN(C(=O)Nc2ccnc3ccccc23)CC1)NO
IC50 (Histone deacetylase 8 [24]): 2000 nM

Cc1ncsc1-c1ccc(CNC(=O)[C@@H]2C[C@@H](O)CN2C(=O)[C@@H](NC(=O)CCCCCCCCCCC(=O)Nc2ccc(C(=O)Nc3ccccc3N)cc2)C(C)(C)C)cc1
DC50 [2]: 17000 nM

Cc1c2ccc(N(C)c3ccnc(Nc4ccc(NC(=O)CCCCCCC(=O)NO)cc4)n3)cc2nn1C
IC50 [25]: 16 nM
IC50 (Histone deacetylase 1 [26]): 120 nM
IC50 [27]: 18 nM
half-life [18]: < 15 min
IC50 [28]: 94 nM

CN(c1ccccc1)c1ncc(NC(=O)CS)cn1
IC50 [5]: 73 nM
IC50 (Histone deacetylase 1 [8]): 2000 nM
